Assays:
Assay type in all cases: cell-based
[1] = system: REC-1 cells; assay: Cytokine induction in CER T / REC-1 co-cultures (multiparametric ELISA); settings: for cytokine response (GrB, IFN-γ, TNF-α) with BTK inhibitor: ibrutinib-induced phosphatidylserine exposure
Description: FIGS. 16A-16H: Induction of Cytokines in Ibrutinib-Treated Co-Cultures of CER1183 and CER1234 T cells and REC-1 Target Cells. Samples depicted in bar graphs from left to right, untransduced, CER-1183, and CER-1234. FIG. 16A: TNFα induction. FIG. 16B: IL-2 induction. FIG. 16C: IFNγ. FIG. 16D: IL-5 induction. FIG. 16E: IL-6 induction. FIG. 16F: IL-10 induction. FIG. 16G: IL-4 induction. FIG. 16H: granzyme B induction.
Cytokine induction was assessed by multiparametric ELISA using conditioned supernatants harvested after 96 hours in the cytotoxicity assay described above.
CER T-cell activation was assessed by measuring induction of IFN-gamma by plate- and cell-based assays. Single induction plate assay: varying concentrations of phosphatidylserine (PS) or phosphatidylethanolamine (PE), a control membrane phospholipid not recognized by wild type TIM-4 (wtTIM-4), were coated onto high-binding tissue culture plates. CER T cells were added and IFN-γ levels were measured 24 hours after ligand exposure by ELISA. EC50 concentrations were determined by nonlinear regression (agonist vs. response-variable slope (4 parameters)). Induction by recursive stimulation plate assay: CER T cells were added to phosphatidylserine coated plates (2.5-20 μg/mL PS coating). Five days later, CER T cells were transferred to uncoated plates with fresh T cell optimizer media for 24 hours. Then, CER T cells were transferred again to a fresh PS coated plate. Supernatant was collected to assess IFN-γ induction by ELISA at various timepoints during re-stimulation (24, 72, and 120 hours). Cell-based assay: cytokine induction was assessed by multiparametric ELISA using conditioned supernatants harvested after 120 hours from the cytotoxicity assay described below.

[2] = system: phosphatidylserine (PS); assay: Recursive stimulation plate assay: IFN-γ on serial phosphatidylserine exposure; settings: 3 serial rounds
Text: FIGS. 19A-19C: CER T cells are activated and produce IFN-γ in response to phosphatidylserine engagement in a cell-free in vitro system. FIG. 19A: IFN-γ production in response phosphatidylserine (PS). IFN-γ production was induced in CER-1236 and CER-1234 T cells stimulated with PS (FIG. 19A), but not with phosphatidylethanolamine (PE) (FIG. 19B). […] FIG. 19C: CER1236 T cells are capable of recursive stimulation in vitro. Recursive IFN-γ induction with 3 serial stimulations at the indicated time points following a 24-hour rest after the first stimulation.
FIG. 43 is a schematic depicting assay design for measuring CER1236 reactivation in response to stimulus by repeated phosphatidylserine stimulation of CER1236 T cells and measurement of IFNγ production.
CER T-cell activation was assessed by measuring induction of IFN-gamma by plate- and cell-based assays. […] CER T cells were added and IFN-γ levels were measured 24 hours after ligand exposure by ELISA. EC50 concentrations were determined by nonlinear regression (agonist vs. response-variable slope (4 parameters)). […] Cell-based assay: cytokine induction was assessed by multiparametric ELISA using conditioned supernatants harvested after 120 hours from the cytotoxicity assay described below.

[3] = system: NSCLC H1975 cells; assay: T cell expansion in H1975 co-culture with osimertinib (quantitative flow cytometry)
Description: FIG. 41: Bar graphs showing fold expansion of total CD3+ T cells (untransduced+vehicle, untransduced+osimertinib, CER1236+vehicle, CER1236+osimertinib) determined by quantitative flow cytometry using quantitation beads over a time course (48 hrs, 96 hrs, 120 hrs, and 144 hrs).
FIG. 42: Flow cytometry plots measuring CD3+ cells (y-axis) and H1975 cell (x-axis) in co-culture experiments with H1975 cells pretreated with vehicle or osimertinib ([…], 19.53 nM) and untransduced T cells (top row) or CER1236 T cells (bottom row).
Proliferation of CER1236 T cells co-cultured with H1975 NSCLC cells pre-treated with osimertinib or vehicle was also measured. […] Total CD3+ T cells fold expansion was determined by quantitative flow cytometry using quantitation beads over a time course (48 hrs, 96 hrs, 120 hrs, and 144 hrs). Experiment was performed twice, once with 5,000 target H1975 cells and once with 10,000 target H1975 cells.

CER-1234: chimeric Tim4 receptor: Tim4 binding domain-CD28tm-CD28-TLR2 TIR-CD3z, SEQ ID NO:18; tested as transduced T cells
IL-2, IL-4 and IL-6 ([1]; co-culture with REC-1 cells, 0.5 μM ibrutinib): nominally increased
cytokine induction: TNF-α, IFN-γ, IL-10, IL-5, granzyme B ([1]; co-culture with REC-1 cells, 0.5 μM ibrutinib, 96 hours): induced
cytokine response (GrB, IFN-γ, TNF-α) with BTK inhibitor [1]: production of Th1 cytokines
cytokine response (GrB, IFN-γ, TNF-α) with BTK inhibitor ([1]; listed as CER1234): enhances CER1234 T cell cytokine response

CER-1236: chimeric Tim4 receptor: Tim4 binding domain-CD28tm-CD28-CD3z-TLR2 TIR, SEQ ID NO:19; tested as transduced T cells
IFN-γ response upon serial phosphatidylserine exposure [2]: elicited repeated IFN-γ response upon 3 serial rounds of exposure to phosphatidylserine
CD3+ T cell proliferation and H1975 cell numbers, osimertinib-treated H1975 ([3]; 120 hours, 4:1 effector:target ratio, flow cytometry): CD3+ T cell proliferation was highest and H1975 cell numbers lowest
total CD3+ T cells fold expansion, combination with osimertinib ([3]; E:T 1:4, 48, 96, 120, 144 hrs): osimertinib drives CER1236 T cell proliferation

Source: patent publication US20250127896A1, “CHIMERIC TIM4 RECEPTORS AND USES THEREOF” (CERO THERAPEUTICS HOLDINGS, INC., priority 2021, published 2025)
